From ChEMBL document CHEMBL1156029, “The discovery of thienopyridine analogues as potent IkappaB kinase beta inhibitors. Part II” (Bioorg Med Chem Lett, 2009)

biological target: T1, Inhibitor of nuclear factor kappa-B kinase subunit beta (Homo sapiens, UniProt O14920); test: Inhibition of Flag epitope-tagged IKK-beta preincubated for 5 mins by scintillation proximity assay
T1 sequence (O14920 whole entry): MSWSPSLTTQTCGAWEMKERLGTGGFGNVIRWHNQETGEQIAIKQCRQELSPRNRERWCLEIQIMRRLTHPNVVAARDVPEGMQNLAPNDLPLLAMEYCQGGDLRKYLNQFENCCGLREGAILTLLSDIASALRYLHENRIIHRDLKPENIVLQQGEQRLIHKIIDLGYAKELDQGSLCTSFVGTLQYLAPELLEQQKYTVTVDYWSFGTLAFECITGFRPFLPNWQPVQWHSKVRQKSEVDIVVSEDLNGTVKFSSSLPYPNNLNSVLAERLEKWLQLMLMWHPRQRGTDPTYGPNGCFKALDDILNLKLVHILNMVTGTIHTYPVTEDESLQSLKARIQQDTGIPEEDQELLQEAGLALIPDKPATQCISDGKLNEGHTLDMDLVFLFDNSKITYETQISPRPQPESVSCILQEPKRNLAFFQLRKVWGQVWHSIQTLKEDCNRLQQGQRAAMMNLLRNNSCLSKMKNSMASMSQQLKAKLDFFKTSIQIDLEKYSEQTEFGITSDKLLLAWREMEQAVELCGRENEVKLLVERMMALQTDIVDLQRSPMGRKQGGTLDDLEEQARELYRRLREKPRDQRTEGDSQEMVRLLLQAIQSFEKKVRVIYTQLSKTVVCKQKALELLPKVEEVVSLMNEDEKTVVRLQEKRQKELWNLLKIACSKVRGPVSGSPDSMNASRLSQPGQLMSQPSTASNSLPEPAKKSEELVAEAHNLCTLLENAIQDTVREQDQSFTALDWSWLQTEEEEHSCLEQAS

| IC50 [nM] | SMILES |
| --- | --- |
| 2400 | Cc1cc(N2CCCCC2)nc2sc(C(N)=O)c(N)c12 |
| 7800 | CCCc1cc(N2CCC(C(=O)OC)CC2)nc2sc(C(N)=O)c(N)c12 |
| > 20000 | Cc1cc(-c2ccc(O)cc2)c2c(N)c(C(N)=O)sc2n1 |
| 120 | CCCc1cc(N2CCC(NC)CC2)nc2sc(C(N)=O)c(N)c12 |
| 1100 | Cc1cc(-c2ccco2)c2c(N)c(C(N)=O)sc2n1 |
| 14000 | Cc1cc(-c2ccc(Cl)cc2)c2c(N)c(C(N)=O)sc2n1 |
| 42 | CCCc1cc(N2CCC(O)C(C)(C)C2)nc2sc(C(N)=O)c(N)c12 (single isomer, unassigned; enantiomer 1) |
| 6000 | Cc1cc(-c2ccccn2)c2c(N)c(C(N)=O)sc2n1 |
| 2000 | CCCc1cc(N2CCNC(=O)C2)nc2sc(C(N)=O)c(N)c12 |
| 680 | Cc1cc(N2CCNCC2)nc2sc(C(N)=O)c(N)c12 |
| 520 | CCCc1cc(N2CCN(C)CC2)nc2sc(C(N)=O)c(N)c12 |
| 2700 | Cc1cc(C)c2c(N)c(C(N)=O)sc2n1 |
| 500 | CCCc1cc(N2CC[C@@H](N)C2)nc2sc(C(N)=O)c(N)c12 |
| 2000 | CCOc1ccnc2sc(C(N)=O)c(N)c12 |
| 2500 | Cc1cc(N2CCOCC2)nc2sc(C(N)=O)c(N)c12 |
| 4700 | COc1ccnc2sc(C(N)=O)c(N)c12 |
| 5100 | Cc1cc(OCCCO)nc2sc(C(N)=O)c(N)c12 |
| 2200 | CCCOc1ccnc2sc(C(N)=O)c(N)c12 |
| 240 | CCCc1cc(N2CCC(O)C(C)(C)C2)nc2sc(C(N)=O)c(N)c12 (single isomer, unassigned; enantiomer 2) |
| 1300 | CCCc1cc(N2CCC(C(N)=O)CC2)nc2sc(C(N)=O)c(N)c12 |
| 680 | CCCc1cc(N2CCC(N(C)C)CC2)nc2sc(C(N)=O)c(N)c12 |
| 140 | CCCc1cc(N2CCCNC(=O)C2)nc2sc(C(N)=O)c(N)c12 |
| > 50000 | Cc1cc(OCCCN)nc2sc(C(N)=O)c(N)c12 |

| IC50 [nM] | SMILES |
| --- | --- |
| 750 | Cc1cc(N2CCC(O)CC2)nc2sc(C(N)=O)c(N)c12 |
| 2500 | Cc1cc(CC(C)C)c2c(N)c(C(N)=O)sc2n1 |
| 12700 | Cc1ccc2c(N)c(C(N)=O)sc2n1 |
| 150 | CCCc1cc(N2CCN(C(N)=O)CC2)nc2sc(C(N)=O)c(N)c12 |
| 98 | CCCc1cc(N2CCC(NS(C)(=O)=O)CC2)nc2sc(C(N)=O)c(N)c12 |
| 1300 | Cc1cc(-c2ccc(S(C)(=O)=O)cc2)c2c(N)c(C(N)=O)sc2n1 |
| 680 | CCCc1cc(N2CCC(OC)CC2)nc2sc(C(N)=O)c(N)c12 |
| 13500 | Cc1cc(CO)c2c(N)c(C(N)=O)sc2n1 |
| 5800 | Cc1cc(NCCO)nc2sc(C(N)=O)c(N)c12 |
| 1450 | CCCc1cc(N2CC[C@H](O)C2)nc2sc(C(N)=O)c(N)c12 |
| 72 | CCCc1cc(N2CCCNCC2)nc2sc(C(N)=O)c(N)c12 |
| 7400 | Cc1cc(-c2ccccc2)c2c(N)c(C(N)=O)sc2n1 |
| 2000 | Cc1cc(-c2cccs2)c2c(N)c(C(N)=O)sc2n1 |
| 8500 | Cc1ccc(-c2cc(C)nc3sc(C(N)=O)c(N)c23)cc1 |
| 1950 | CCCc1cc(N2CC[C@@H](O)C2)nc2sc(C(N)=O)c(N)c12 |
| 630 | CCCc1cc(N2CCCCC(N)C2)nc2sc(C(N)=O)c(N)c12 (stereo unspecified) |
| 10800 | COCCOc1ccnc2sc(C(N)=O)c(N)c12 |
| 6600 | Cc1cc(OCCO)nc2sc(C(N)=O)c(N)c12 |
| 590 | CCCc1cc(N2CC[C@H](N)C2)nc2sc(C(N)=O)c(N)c12 |
| 16900 | Cc1cc(-c2cc3ccccc3o2)c2c(N)c(C(N)=O)sc2n1 |
| 2900 | Cc1cc(OCCN)nc2sc(C(N)=O)c(N)c12 |
| 1300 | CCCc1cc(C)nc2sc(C(N)=O)c(N)c12 |
| 2400 | Cc1cc(N2CCCC(O)C2)nc2sc(C(N)=O)c(N)c12 (stereo unspecified) |
